Laboratory results published in patent publication US11691976B2, “Coelenterazine analogues” (PROMEGA CORPORATION, priority 2018, dated 2023).

Target: NANOLUC® Luciferase (Oplophorus gracilirostris, UniProt Q9GV45, A31E/A60N/A81I/F95D/I117V/K70R/L54V/L99Q/M102K/N193R/P142E/Q151K/Q38R/Q45L/V71I/Y165I)
Assay: Luminescence assay: substrate titration with purified NANOLUC Luciferase (RLU, signal half-life, Km)
Assay type: biochemical
Details: 100 μM substrate; initial light output three minutes after substrate addition; relative to furimazine set to 1.0
Method: Each compound to be screened was dissolved in DMSO (5 mM) and then further diluted to 100 μM in NANO-GEO® Luciferase Assay Buffer. A two-fold dilution series was prepared for each substrate by serially diluting 500 μl of the substrate solution with 500 μl of NANO-GLO® Luciferase Assay Buffer. Each diluted substrate titration was then combined in equal volumes with purified NANOLUC® Luciferase diluted into CO2 independent media+10% FBS. Initial light output for each substrate was measured in a GLOMAX®-Multi+ luminometer three minutes after substrate addition and then at five minute intervals as a means to determine signal half-life. Signal half-life was calculated using GraphPad Prism One Phase Decay regression and Km and Vmax were calculated using GraphPad Prism using Michaelis-Menten regression.
The synthesized coelenterazine analogues (compounds of formula (I) and (II)) were evaluated for their suitability as luciferase substrates. NANOLUC® luciferase was employed for the screening because it is a small (19 kDa), stable, and particularly bright enzyme. […] RLU, half-life, and Km values are for furimazine is set to 1.0. […]

NANOLUC® Luciferase, sequence (Q9GV45 28-196 with tags or gaps with the stated changes limits assumed): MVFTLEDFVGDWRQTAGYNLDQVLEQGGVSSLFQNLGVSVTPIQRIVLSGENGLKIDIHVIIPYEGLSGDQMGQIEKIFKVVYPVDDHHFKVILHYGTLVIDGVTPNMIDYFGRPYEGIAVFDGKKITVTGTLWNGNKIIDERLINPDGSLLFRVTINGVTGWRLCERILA

COc1cccc(Cc2nc3c(Cc4ccccc4)[nH]c(-c4cccc(O)c4)cn-3c2=O)c1 [JRW-1047, 8-benzyl-6-(3-hydroxyphenyl)-2-(3-methoxybenzyl)imidazo[1,2-a]pyrazin-3(7H)-one]
RLU (@100 μM): 0.5

O=c1c(Cc2ccc(C(F)(F)F)o2)nc2c(Cc3ccccc3)[nH]c(-c3cccc(O)c3F)cn1-2 [JRW-1619, 8-benzyl-6-(2-fluoro-3-hydroxyphenyl)-2-((5-(trifluoromethyl)furan-2-yl)methyl)imidazo[1,2-a]pyrazin-3(7H)-one]
RLU (@100 μM): 0.85

O=c1c(Cc2ccco2)nc2c(Cc3ccccc3)[nH]c(-c3cccc(O)c3Cl)cn1-2 [JRW-1488, 8-benzyl-6-(2-chloro-3-hydroxyphenyl)-2-(furan-2-ylmethyl)imidazo[1,2-a]pyrazin-3(7H)-one]
RLU (@100 μM): 0.31

Nc1cccc(-c2cn3c(=O)c(Cc4ccco4)nc-3c(Cc3ccccc3F)[nH]2)c1F [JRW-1667, 6-(3-amino-2-fluorophenyl)-8-(2-fluorobenzyl)-2-(furan-2-ylmethyl)imidazo[1,2-a]pyrazin-3(7H)-one]
RLU (@100 μM): 2.1

O=c1c(Cc2cccs2)nc2c(Cc3ccccc3)[nH]c(-c3cccc(O)c3F)cn1-2 [JRW-1624, 8-benzyl-6-(2-fluoro-3-hydroxyphenyl)-2-(thiophen-2-ylmethyl)imidazo[1,2-a]pyrazin-3(7H)-one]
RLU (@100 μM): 0.84

COc1ccc(Cc2nc3c(Cc4ccccc4)[nH]c(-c4cccc(O)c4)cn-3c2=O)cc1 [JRW-1052, 8-benzyl-6-(3-hydroxyphenyl)-2-(4-methoxybenzyl)imidazo[1,2-a]pyrazin-3(7H)-one]
RLU (@100 μM): 0.4

Cc1cccc(Cc2[nH]c(-c3cccc(O)c3F)cn3c(=O)c(Cc4ccco4)nc2-3)c1 [JRW-1370, 6-(2-fluoro-3-hydroxyphenyl)-2-(furan-2-ylmethyl)-8-(3-methylbenzyl)imidazo[1,2-a]pyrazin-3(7H)-one]
RLU (@100 μM): 0.036

O=c1c(Cc2ccco2)nc2c(Cc3ccccc3)[nH]c(-c3cc(O)cc(F)c3)cn1-2 [JRW-1526, 8-benzyl-6-(3-fluoro-5-hydroxyphenyl)-2-(furan-2-ylmethyl)imidazo[1,2-a]pyrazin-3(7H)-one]
RLU (@100 μM): 1.0

O=c1c(Cc2ccccc2)nc2c(Cc3ccccc3)[nH]c(-c3cccc(O)c3)cn1-2 [JRW-1043, 2,8-dibenzyl-6-(3-hydroxyphenyl)imidazo[1,2-a]pyrazin-3(7H)-one]
RLU (@100 μM): 0.8

Cc1c(O)cccc1-c1cn2c(=O)c(Cc3ccco3)nc-2c(Cc2ccccc2)[nH]1 [JRW-1645, 8-benzyl-2-(furan-2-ylmethyl)-6-(3-hydroxy-2-methylphenyl)imidazo[1,2-a]pyrazin-3(7H)-one]
RLU (@100 μM): 0.07

O=c1c(Cc2ccco2)nc2c(Cc3ccccc3F)[nH]c(-c3cccc(O)c3F)cn1-2 [JRW-1668, 6-(2-fluoro-3-hydroxyphenyl)-8-(2-fluorobenzyl)-2-(furan-2-ylmethyl)imidazo[1,2-a]pyrazin-3(7H)-one]
RLU (@100 μM): 1.5

O=c1c(Cc2ccco2)nc2c(Cc3ccccc3)[nH]c(-c3ccc(Cl)c(O)c3)cn1-2 [JRW-1483, 8-benzyl-6-(4-chloro-3-hydroxyphenyl)-2-(furan-2-ylmethyl)imidazo[1,2-a]pyrazin-3(7H)-one]
RLU (@100 μM): 0.008

Nc1cccc(-c2cn3c(=O)c(Cc4ccc(F)cc4)nc-3c(Cc3ccccc3)[nH]2)c1F [JRW-1635, 6-(3-amino-2-fluorophenyl)-8-benzyl-2-(4-fluorobenzyl)imidazo[1,2-a]pyrazin-3(7H)-one]
RLU (@100 μM): 1.0

Nc1cccc(-c2cn3c(=O)c(Cc4ccco4)nc-3c(Cc3ccccc3)[nH]2)c1F [JRW-1482, 6-(3-amino-2-fluorophenyl)-8-benzyl-2-(furan-2-ylmethyl)imidazo[1,2-a]pyrazin-3(7H)-one]
RLU (@100 μM): 1.7

O=c1c(Cc2ccco2)nc2c(Cc3ccc(F)cc3)[nH]c(-c3cccc(O)c3)cn1-2 [JRW-1498, 8-(4-fluorobenzyl)-2-(furan-2-ylmethyl)-6-(3-hydroxyphenyl)imidazo[1,2-a]pyrazin-3(7H)-one]
RLU (@100 μM): 0.049

O=c1c(Cc2ccco2)nc2c(Cc3ccccc3)[nH]c(-c3cc(O)ccc3F)cn1-2 [JRW-1405, 8-benzyl-6-(2-fluoro-5-hydroxyphenyl)-2-(furan-2-ylmethyl)imidazo[1,2-a]pyrazin-3(7H)-one]
RLU (@100 μM): 1.0

Nc1cc(F)cc(-c2cn3c(=O)c(Cc4ccco4)nc-3c(Cc3ccccc3)[nH]2)c1 [JRW-1535, 6-(3-amino-5-fluorophenyl)-8-benzyl-2-(furan-2-ylmethyl)imidazo[1,2-a]pyrazin-3(7H)-one]
RLU (@100 μM): 0.73

COCc1cccc(Cc2nc3c(Cc4ccccc4)[nH]c(-c4cccc(O[Si](C)(C)C(C)(C)C)c4)cn-3c2=O)c1 [JRW-0372, 8-benzyl-6-(3-((tert-butyldimethylsilyl)oxy)phenyl)-2-(3-(methoxymethyl)benzyl)imidazo[1,2-a]pyrazin-3(7H)-one]
RLU (@100 μM): 0.00033

Cc1c(N)cccc1-c1cn2c(=O)c(Cc3ccco3)nc-2c(Cc2ccccc2)[nH]1 [JRW-1642, 6-(3-amino-2-methylphenyl)-8-benzyl-2-(furan-2-ylmethyl)imidazo[1,2-a]pyrazin-3(7H)-one]
RLU (@100 μM): 0.04

O=c1c(Cc2ccco2)nc2c(Cc3ccccc3)[nH]c(-c3cccc(O)c3F)cn1-2 [JRW-1404, 8-benzyl-6-(2-fluoro-3-hydroxyphenyl)-2-(furan-2-ylmethyl)imidazo[1,2-a]pyrazin-3(7H)-one]
RLU (@100 μM): 1.2

Cc1cccc(Cc2[nH]c(-c3cccc(O)c3)cn3c(=O)c(Cc4ccco4)nc2-3)c1 [JRW-1368, 2-(furan-2-ylmethyl)-6-(3-hydroxyphenyl)-8-(3-methylbenzyl)imidazo[1,2-a]pyrazin-3(7H)-one]
RLU (@100 μM): 0.032

Nc1cccc(-c2cn3c(=O)c(Cc4ccc(C(F)(F)F)o4)nc-3c(Cc3ccccc3)[nH]2)c1F [JRW-1610, 6-(3-amino-2-fluorophenyl)-8-benzyl-2-((5-(trifluoromethyl)furan-2-yl)methyl)imidazo[1,2-a]pyrazin-3(7H)-one]
RLU (@100 μM): 0.71

O=c1c(Cc2ccco2)nc2c(Cc3ccccc3)[nH]c(-c3cc(O)cc(Cl)c3)cn1-2 [JRW-1479, 8-benzyl-6-(3-chloro-5-hydroxyphenyl)-2-(furan-2-ylmethyl)imidazo[1,2-a]pyrazin-3(7H)-one]
RLU (@100 μM): 0.43

O=c1c(Cc2ccc3c(c2)OCO3)nc2c(Cc3ccccc3)[nH]c(-c3cccc(O)c3)cn1-2 [JRW-0777, 2-(benzo[d][1,3]dioxol-5-ylmethyl)-8-benzyl-6-(3-hydroxyphenyl)imidazo[1,2-a]pyrazin-3(7H)-one]
RLU (@100 μM): 0.45

Nc1cc(-c2cn3c(=O)c(Cc4ccco4)nc-3c(Cc3ccccc3)[nH]2)ccc1F [JRW-1536, 6-(3-amino-4-fluorophenyl)-8-benzyl-2-(furan-2-ylmethyl)imidazo[1,2-a]pyrazin-3(7H)-one]
RLU (@100 μM): 0.08

Nc1cccc(-c2cn3c(=O)c(Cc4ccco4)nc-3c(Cc3c(F)cccc3F)[nH]2)c1F [JRW-1747, 6-(3-amino-2-fluorophenyl)-8-(2,6-difluorobenzyl)-2-(furan-2-ylmethyl)imidazo[1,2-a]pyrazin-3(7H)-one]
RLU (@100 μM): 2.1

O=c1c(Cc2ccco2)nc2c(Cc3ccccc3)[nH]c(-c3cccc([N+](=O)[O-])c3)cn1-2 [JRW-1424, 8-benzyl-2-(furan-2-ylmethyl)-6-(3-nitrophenyl)imidazo[1,2-a]pyrazin-3(7H)-one]
RLU (@100 μM): 0.14
